Values after ≈ are worked out from the molar mass of the structure shown.
Legend:
Format in all cases: functional, cell-based
[1] = tested on: A-375; assay: Cytotoxicity against human A375 cells after 24 hrs by MTT assay; details: A-375, 24 h
[2] = Cytotoxicity against human HPC cells after 24 hrs by MTT assay
[3] = tested on: HepG2; assay: Cytotoxicity against human HepG2 cells after 24 hrs by MTT assay; details: HepG2, 24 h
[4] = tested on: HSC-2; assay: Cytotoxicity against human HSC2 cells after 24 hrs by MTT assay; details: HSC-2, 24 h

SMILES | IC50 [1] | IC50 [2] | IC50 [3] | IC50 [4]
C[C@@H]1O[C@@H](O[C@H]2CC[C@]3(C=O)[C@H]4CC[C@]5(C)[C@@H](c6ccc(=O)oc6)[C@@H](O)C[C@]5(O)[C@@H]4CC[C@]3(O)C2)[C@H](O)[C@H](O)[C@H]1O | 0.055 µg/mL (≈ 0.095 µM) | 9.5 µg/mL (≈ 16.4 µM) | 0.74 µg/mL (≈ 1.28 µM) | 0.0085 µg/mL (≈ 0.0147 µM)
C[C@@H]1O[C@@H](O[C@H]2CC[C@]3(C=O)[C@H]4CC[C@]5(C)[C@@H](c6ccc(=O)oc6)CC[C@]5(O)[C@@H]4CC[C@]3(O)C2)[C@H](O)[C@H](O)[C@H]1O | 0.0063 µg/mL (≈ 0.0112 µM) | 6.7 µg/mL (≈ 11.9 µM) | 0.25 µg/mL (≈ 0.444 µM) | 0.0028 µg/mL (≈ 0.00498 µM)
C[C@]12CC[C@H]3[C@@H](CC[C@]4(O)C[C@@H](O[C@@H]5O[C@H](CO)[C@@H](O)[C@H](O)[C@H]5O)CC[C@]34C=O)[C@@]1(O)CC[C@@H]2c1ccc(=O)oc1 | 0.0086 µg/mL (≈ 0.0149 µM) | 0.082 µg/mL (≈ 0.142 µM) | 0.23 µg/mL (≈ 0.397 µM) | 0.0029 µg/mL (≈ 0.00501 µM)
C=C1CO[C@@]2(O[C@H]3C[C@H]4[C@@H]5CC=C6C[C@@H](O)C[C@@H](O[C@@H]7OC[C@H](O)[C@H](O[C@@H]8OC[C@@H](O)[C@H](O)[C@H]8O)[C@H]7O[C@@H]7O[C@@H](C)[C@H](OC(C)=O)[C@@H](O[C@@H]8OC[C@](O)(CO)[C@H]8O)[C@H]7O)[C@]6(C)[C@H]5CC[C@]4(C)[C@H]3[C@@H]2C)[C@@H](O)[C@H]1O |  |  |  | 86 µg/mL (≈ 82.3 µM)
C=C1CO[C@@]2(O[C@H]3C[C@H]4[C@@H]5CC=C6C[C@@H](O)C[C@@H](O[C@@H]7OC[C@H](O)[C@H](O[C@@H]8OC[C@@H](O)[C@H](O)[C@H]8O)[C@H]7O[C@@H]7O[C@@H](C)[C@H](OC(C)=O)[C@@H](O[C@@H]8OC[C@](O)(CO)[C@H]8O)[C@H]7O)[C@]6(C)[C@H]5CC[C@]4(C)[C@H]3[C@@H]2C)[C@@H](O)C1 |  |  |  | 27 µg/mL (≈ 26.2 µM)
C=C1CO[C@@]2(O[C@H]3C[C@H]4[C@@H]5CC=C6C[C@@H](O)C[C@@H](O[C@@H]7OC[C@H](O)[C@H](O[C@@H]8OC[C@@H](O)[C@H](O)[C@H]8O)[C@H]7O[C@@H]7O[C@@H](C)[C@H](OC(C)=O)[C@@H](O[C@@H]8OC[C@](O)(CO)[C@H]8O)[C@H]7O)[C@]6(C)[C@H]5CC[C@]4(C)[C@H]3[C@@H]2COC(C)=O)[C@@H](O)[C@H]1O[C@@H]1O[C@H](C)[C@@H](O)[C@H](O)[C@H]1O |  |  |  | > 200 µg/mL
C=C1CO[C@@]2(O[C@H]3C[C@H]4[C@@H]5CC=C6C[C@@H](O)C[C@@H](O[C@@H]7OC[C@H](O)[C@H](O[C@@H]8OC[C@@H](O)[C@H](O)[C@H]8O)[C@H]7O[C@@H]7O[C@@H](C)[C@H](OC(C)=O)[C@@H](O[C@@H]8OC[C@](O)(CO)[C@H]8O)[C@H]7O)[C@]6(C)[C@H]5CC[C@]4(C)[C@H]3[C@@H]2COC(C)=O)[C@@H](O)[C@H]1O[C@@H]1O[C@H](CO)[C@@H](O)[C@H](O)[C@H]1O |  |  |  | > 200 µg/mL
C=C1CO[C@@]2(O[C@H]3C[C@H]4[C@@H]5CC=C6C[C@@H](O)C[C@@H](O[C@@H]7OC[C@H](O)[C@H](O[C@@H]8OC[C@@H](O)[C@H](O)[C@H]8O)[C@H]7O[C@@H]7O[C@@H](C)[C@H](OC(C)=O)[C@@H](O[C@@H]8OC[C@](O)(CO)[C@H]8O)[C@H]7O)[C@]6(C)[C@H]5CC[C@]4(C)[C@H]3[C@@H]2COC(C)=O)[C@@H](O)[C@H]1O |  |  |  | 184 µg/mL (≈ 167 µM)
COc1cccc2c1C(=O)c1c(O)c3c(c(O)c1C2=O)C[C@@](O)(C(=O)CO)C[C@@H]3O[C@H]1C[C@H](N)[C@H](O)[C@H](C)O1 [DOXORUBICIN] | 1.8 µg/mL (≈ 3.31 µM) | > 40 µg/mL | > 40 µg/mL | 2.5 µg/mL (≈ 4.6 µM)
